# pIC50: −log10 of the molar value. Structures can show the parent of a compound that is named as a salt.
# Molecular target: T1, cloned rat PDE10A full-length enzyme (Rattus norvegicus, UniProt Q9QYJ6)
# T1 construct: cloned rat PDE10A full-length enzyme grown in transfected Sf9 insect cells; made in house; host or cells: Sf9 insect cells
# T1 sequence (Q9QYJ6 1-794): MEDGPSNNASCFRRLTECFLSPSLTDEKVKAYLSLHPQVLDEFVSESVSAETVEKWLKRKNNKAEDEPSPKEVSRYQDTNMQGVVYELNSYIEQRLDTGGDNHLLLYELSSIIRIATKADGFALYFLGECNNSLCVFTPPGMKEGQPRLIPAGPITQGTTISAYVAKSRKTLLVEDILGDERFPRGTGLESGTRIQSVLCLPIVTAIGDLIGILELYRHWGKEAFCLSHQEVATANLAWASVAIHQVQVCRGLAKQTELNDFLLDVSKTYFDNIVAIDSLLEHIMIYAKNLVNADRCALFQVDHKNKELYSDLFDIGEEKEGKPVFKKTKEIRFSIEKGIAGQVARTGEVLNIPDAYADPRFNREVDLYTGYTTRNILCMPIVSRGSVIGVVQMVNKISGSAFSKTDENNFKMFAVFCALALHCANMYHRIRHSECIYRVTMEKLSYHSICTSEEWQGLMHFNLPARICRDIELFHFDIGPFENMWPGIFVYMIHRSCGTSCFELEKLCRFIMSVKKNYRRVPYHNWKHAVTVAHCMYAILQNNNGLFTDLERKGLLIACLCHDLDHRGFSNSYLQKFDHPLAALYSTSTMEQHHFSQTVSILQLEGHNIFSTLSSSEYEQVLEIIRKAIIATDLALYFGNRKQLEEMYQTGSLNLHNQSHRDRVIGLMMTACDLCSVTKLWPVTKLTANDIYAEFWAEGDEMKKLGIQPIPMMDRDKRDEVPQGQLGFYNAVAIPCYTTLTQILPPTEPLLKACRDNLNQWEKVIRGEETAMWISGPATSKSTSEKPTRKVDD
# Assay: PDE10 enzyme inhibition, [3H]cAMP scintillation proximity assay
# Format: biochemical
# Conditions: rat PDE10A from Sf9 cells, 20 nM [3H]cAMP, SPA beads, 20 minute incubation at room temperature
# Procedure, shortened: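 Full-length rat PDE10A from Sf9 cells hydrolysed 20 nM [3H]cAMP in 50 mM Tris, 8.3 mM MgCl2, pH 7.5, 2% DMSO, for 20 minutes at room temperature (<10% conversion). Yttrium silicate SPA beads with zinc sulphate stopped the reaction and captured [3H]AMP; 1 uM papaverine defined non-specific binding, vehicle defined total conversion.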
row,Molecule,pIC50
1,"Cc1ccc(-n2cc(-c3cscn3)nc2-c2ccc(-n3c(C(F)(F)F)nc4cccnc43)cc2)cn1 [Example 99, 2-(trifluoromethyl)-3-(4-(1-(6-methylpyridin-3-yl)-4-(thiazol-4-yl)-1H-imidazol-2-yl)phenyl)-3H-imidazo[4,5-b]pyridine]",8.81
2,"c1ccc(-c2cn(-c3cccnc3)c(-c3ccc(-n4nnc5ccccc54)cc3)n2)nc1 [Example 42, 1-(4-(4-(pyridin-2-yl)-1-(pyridin-3-yl)-1H-imidazol-2-yl)phenyl)-1H-benzo[d][1,2,3]triazole bis-TFA salt]",7.17
3,"3-(4-(5-(4-methoxyphenyl)-2-(thiophen-2-yl)-1H-imidazol-4-yl)phenyl)-3H-imidazol[4,5-b]pyridine and 1-(4-(5-(4-methoxyphenyl)-2-(thiophen-2-yl)-1H-imidazo[4,5-b]pyridine [Example 101]",9.15
4,"c1ccc(-c2cn(-c3cccnc3)c(-c3ccc(-n4ccnc4)cc3)n2)nc1 [Example 44, 3-(2-(4-(1H-imidazol-1-yl)phenyl)-4-(pyridin-2-yl)-1H-imidazol-1-yl)pyridine]",6.28
5,"CN(C)CCc1cn(-c2ccc(-c3nc(-c4ccccn4)cn3-c3cccnc3)cc2)c2ncccc12 [Example 10, N,N-dimethyl-2-(1-(4-(4-(pyridin-2-yl)-1-(pyridin-3-yl)-1H-imidazol-2-yl)phenyl)-1H-pyrrolo[2,3-b]pyridin-3-yl)ethanamine]",8.05
6,"COc1cc(-c2ccc(-c3nc(-c4ccccn4)cn3-c3cccnc3)cc2)c2ncccc2c1 [Example 80, 6-methoxy-8-(4-(4-(pyridin-2-yl)-1-(pyridin-3-yl)-1H-imidazol-2-yl)phenyl)quinoline]",9.10
7,"CN(C)Cc1cn(-c2ccc(-c3nc(-c4ccccn4)cn3-c3cccnc3)cc2)c2ncccc12 [Example 18, N,N-dimethyl(1-(4-(4-(pyridin-2-yl)-1-(pyridin-3-yl)-1H-imidazol-2-yl)phenyl)-1H-pyrrolo[2,3-b]pyridin-3-yl)methanamine TFA salt]",7.61
8,"COc1nc2cccnc2n1-c1ccc(-c2nc(-c3nc(C)cs3)cn2-c2ccc(C)nc2)cc1 [Example 90, 2-methoxy-3-(4-(1-(6-methylpyridin-3-yl)-4-(4-methylthiazol-2-yl)-1H-imidazol-2-yl)phenyl)-3H-imidazol[4,5-b]pyridine]",9.54

# The next lines start with the values.
row,pIC50,Molecule
1,8.16,"c1ccc(-c2cn(-c3cccnc3)c(-c3ccc(-n4ccc5cccnc54)cc3)n2)nc1 [Example 7, 1-(4-(4-(pyridin-2-yl)-1-(pyridin-3-yl)-1H-imidazol-2-yl)phenyl)-1H-pyrrolo[2,3-b]pyridine]"
2,9.04,"c1ccc(-c2cn(-c3cccnc3)c(-c3ccc(-n4c5c(c6cccnc64)CSCC5)cc3)n2)nc1 [Example 17, 9-[4-(4-pyridin-2-yl-1-pyridin-3-yl-1H-imidazol-2-yl)phenyl]-5,7,8,9-tetrahydrothiopyrano[3′,4′,4,5]pyrrolo[2,3-b]pyridine]"
3,8.48,"c1cncc(-n2cc(-c3nccs3)nc2-c2ccc(-n3ccc4cccnc43)cc2)c1 [Example 23, 1-(4-(1-(pyridin-3-yl)-4-(thiazol-2-yl)-1H-imidazol-2-yl)phenyl)-1H-pyrrolo[2,3-b]pyridine]"
4,8.49,"Cc1ccc(-n2cc(-c3ccccn3)nc2-c2ccc(-n3ccc4cccnc43)cc2)cn1 [Example 6, 1-(4-(1-(6-methylpyridine-3-yl)-4-(pyridin-2-yl)-1H-imidazol-2-yl)phenyl)-1H-pyrrolo[2,3-b]pyridine]"
5,8.65,CN1CCN(c2ccc(-c3[nH]c(-c4cncs4)nc3-c3ccc(-n4ccc5cccnc54)cc3)cn2)CC1 [Example 107]
6,8.99,"CCOc1nc2cccnc2n1-c1ccc(-c2nc(-c3ccccn3)cn2-c2ccc(C)nc2)cc1 [Example 94, 2-ethoxy-3-(4-(1-(6-methylpyridin-3-yl)-4-(pyridin-2-yl)-1H-imidazol-2-yl)phenyl)-3H-imidazol[4,5-b]pyridine]"
7,8.71,Cc1ccc(-n2cc(-c3cncs3)nc2-c2ccc(-n3c(C(C)C)nc4cccnc43)cc2)cn1 [Example 97]
8,8.03,"c1ccc(-c2cc(-c3cccnc3)n(-c3ccc(-n4ccc5cccnc54)cc3)n2)nc1 [Example 121, 1-(4-(3-(pyridin-2-yl)-5-(pyridin-3-yl)-1H-pyrazol-1-yl)phenyl)-1H-pyrrolo)-2,3-b]pyridine bis-TFA salt]"
9,> 8.46,"Cc1ccc(-n2cc(-c3ccccn3)nc2-c2ccc(-n3ccc4nccnc43)cc2)cn1 [Example 50, 5-(4-(1-(6-methylpyridin-3-yl)-4-(pyridin-2-yl)-1H-imidazol-2-yl)phenyl)-5H-pyrrolo[3,2-b]pyrazine]"
10,9.48,"COc1nc2cccnc2n1-c1ccc(-c2nc(-c3nccs3)cn2-c2ccc(C)nc2)cc1 [Example 81, 2-methoxy-3-(4-(1-(6-methylpyridin-3-yl)-4-(thiazol-2-yl)-1H-imidazol-2-yl)phenyl)-3H-imidazo[4,5-b]pyridine]"
11,8.03,COc1ccc(-c2[nH]c(-c3cccs3)nc2-c2ccc(-n3cnc4ccccc43)cc2)cc1 [Example 111]
12,7.85,"CNCc1ccc(-n2cc(-c3nccs3)nc2-c2ccc(-n3ccc4cccnc43)cc2)cc1 [Example 33, (4-(2-(4-(1H-pyrrolo[2,3-b]pyridin-1-yl)phenyl)-4-(thiazol-2-yl)-1H-imidazol-1-yl)phenyl-N-methylmethanamine Hydrochloride]"

# System: not given
# Assay: not given
# Conditions: not given
row,melting point [°C],Molecule
1,174 to 176,"c1ccc(-c2cn(-c3cccnc3)c(-c3ccc(-n4ccc5cccnc54)cc3)n2)nc1 [Example 7, 1-(4-(4-(pyridin-2-yl)-1-(pyridin-3-yl)-1H-imidazol-2-yl)phenyl)-1H-pyrrolo[2,3-b]pyridine]"
2,201 to 204,"Cc1ccc(-n2cc(-c3cscn3)nc2-c2ccc(-n3c(C(F)(F)F)nc4cccnc43)cc2)cn1 [Example 99, 2-(trifluoromethyl)-3-(4-(1-(6-methylpyridin-3-yl)-4-(thiazol-4-yl)-1H-imidazol-2-yl)phenyl)-3H-imidazo[4,5-b]pyridine]"
3,195 to 197,"c1cncc(-n2cc(-c3nccs3)nc2-c2ccc(-n3ccc4cccnc43)cc2)c1 [Example 23, 1-(4-(1-(pyridin-3-yl)-4-(thiazol-2-yl)-1H-imidazol-2-yl)phenyl)-1H-pyrrolo[2,3-b]pyridine]"
4,190 to 192,"COc1nc2cccnc2n1-c1ccc(-c2nc(-c3nccs3)cn2-c2ccc(C)nc2)cc1 [Example 81, 2-methoxy-3-(4-(1-(6-methylpyridin-3-yl)-4-(thiazol-2-yl)-1H-imidazol-2-yl)phenyl)-3H-imidazo[4,5-b]pyridine]"

# Source: patent US20080090834A1, “SELECTIVE AZOLE PDE10A INHIBITOR COMPOUNDS” (Pfizer Inc, priority 2006, published 2008)
